We go through 28 molecules from patent US11186589B2, “Cyanoindoline derivatives as NIK inhibitors” (Janssen Pharmaceutica NV, priority 2016, dated 2021).

Read-outs that look alike come from different tables or passages of the source.

In test [1] the test system is P-IKKα levels in L363 cells. Put plainly: Effect of compounds on P-IKKα levels in L363 (NIK translocated multiple myeloma) cells. The class given is cell-based, human. The note with it: 2 hr treatment, averaged values, read-out: Inhibition of pIKKα_L-363 (IC50 (nM)). The method, then: Effect of Compounds on P-IKKα Levels in L363 (NIK Translocated Multiple Myeloma) Cells
All compounds tested were dissolved in DMSO and further dilutions were made in culture medium. Final DMSO concentration was 1% (v/v) in cell assays. The human L363 cells (ATCC) were cultured in RPMI 1640 medium supplemented with GlutaMax and 10% fetal calf serum (PAA). Cells were routinely maintained at densities of 0.2×10^6 cells per ml—1×10^6 cells per ml at 37° C. in a humidified 5% CO2 atmosphere. Cells were passaged twice a week splitting back to obtain the low density. Cells were seeded in 96 well plates (Nunc 167008) at 2×10^6 per ml media in a volume of 75 μl per well plus 25 μl 1 μg/ml recombinant human B-cell activating factor (BAFF/BLyS/TNFSF13B). Seeded cells were incubated at 37° C. in a humidified 5% CO2 atmosphere for 24 hr. Drugs and/or solvents were added (20 μl) to a final volume of 120 μl. Following 2 hr treatment plates were removed from the incubator and cell lysis was achieved by the addition of 30 μl 5× lysis buffer followed by shaking on a plate shaker at 4° C. for 10 min. At the end of this incubation lysed cells were centrifuged at 800×g for 20 min at 4° C. and the lysate was assessed for P-IKKα levels by sandwich immuno-assay carried out in anti-rabbit antibody coated Mesoscale plates. Within an experiment, the results for each treatment were the mean of 2 replicate wells. For initial screening purposes, compounds were tested using an 8 point dilution curve (serial 1:3 dilutions). For each experiment, controls (containing MG132 and BAFF but no test drug) and a blank incubation (containing MG132 and BAFF and 10 μM ADS125117, a test concentration known to give full inhibition) were run in parallel. The blank incubation value was subtracted from all control and sample values. To determine the IC50 a sigmoidal curve was fitted to the plot of % inhibition of control P-IKKα levels versus Log10 compound concentration.

The target in the next test is NIK/MAP3K14 (Homo sapiens (Human), UniProt Q99558). Put plainly: Inhibition of auto-phosphorylation of recombinant human NF-kappaB-inducing kinase (NIK/MAP3K14) activity (AlphaScreen). The note with it: averaged values over all measurements on all batches, 25 microM ATP. The class given is biochemical. The method, then:
Inhibition of Auto-Phosphorylation of Recombinant Human NF-kappaB-Inducing Kinase ([…]) Activity (AlphaScreen®)
NIK/MAP3K14 auto-phosphorylation activity was measured using the AlphaScreen® (αscreen) format (Perkin Elmer). All compounds tested were dissolved in dimethyl sulfoxide (DMSO) and further dilutions were made in assay buffer. Final DMSO concentration was […] in assays. Assay buffer was 50 mM Tris pH 7.5 containing 1 mM EGTA (ethylene glycol tetraacetic acid), 1 mM DTT (dithiothreitol), 0.1 mM Na3VO4, 5 mM MgCl2, 0.01% Tween® 20. Assays were carried out in 384 well Alphaplates (Perkin Elmer). Incubations consisted of compound, 25 microM Adenosine-5′-triphosphate (ATP), and 0.2 nM NIK/MAP3K14. Incubations were initiated by addition of GST-tagged NIK/MAP3K14 enzyme, carried out for 1 h at 25° C. and terminated by addition of stop buffer containing anti-phospho-[…] Ser176/180 antibody. Protein A Acceptor and Glutathione-Donor beads were added before reading using an EnVision® Multilabel Plate Reader (Perkin Elmer). Signal obtained in the wells containing blank samples was subtracted from all other wells and IC50's were determined by fitting a sigmoidal curve to % inhibition of control versus Log10 compound concentration.
Background: Alpha assays give light when donor and acceptor beads are brought close together.

The next test deals with JJN-3 cells. Put plainly: Antiproliferative activity on JJN-3 (NIK translocated) multiple myeloma cells (CellTiter-Glo). The format is cell-based, human. To be noted: JJN-3 (NIK translocated) cells, 96 hr treatment, averaged values, read-out: JJN-3 Proliferation inhibition (IC50 (nM)). As for the experimental part: (§1) Determination of Antiproliferative Activity on JJN-3 (NIK Translocated) and KMS12-BM (NIK WT) Multiple Myeloma Cells
(§2) All compounds tested were dissolved in DMSO and further dilutions were made in culture medium. Final DMSO concentration was 0.3% (v/v) in cell proliferation assays. Viability was assessed using CellTiter-Glo cell viability assay kit (Promega). The human JJN-3 and KMS12-BM cells (DSMZ) were cultured in RPMI 1640 medium supplemented with 2 mM L-glutamine, and 10% fetal calf serum (PAA). Cells were routinely kept as suspension cells at 37° C. in a humidified 5% CO2 atmosphere. Cells were passaged at a seeding density of 0.2×10^6/ml twice a week. Cells were seeded in black tissue culture treated 96-well plates (Perkin Elmer). Densities used for plating ranged from 15000 (JJN3) to 20000 (KMS12BM) cells per well in a total volume of […]. Drugs and/or solvents were added (15 μl) to a final volume of 150 μl. Following 96 hr of treatment, plates were removed from the incubator and allowed to equilibrate to room temperature for approx 10 min. 75 μl CellTiter-Glo reagent was added to each well that was then covered (Perkin Elmer Topseal) and shaken on plate shaker for 10 min. Luminescence was measured on a HTS Topcount (Perkin Elmer). Within an experiment, the results for each treatment were the mean of 2 replicate wells. For initial screening purposes, compounds were tested using a 9 point dilution curve (serial 1:3 dilutions). For each experiment, controls (containing no drug) and a blank incubation (containing cells read at the time of compound addition) were run in parallel. The blank value was subtracted from all control and sample values. For each sample, the mean value for cell growth (in relative light units) was expressed as a percentage of the mean value for cell growth of the control.
In general terms: Cellular ATP, detected with luciferase, serves as a proxy for viable cell number.

The next test has as its system KMS12-BM cells. Put plainly: Antiproliferative activity on KMS12-BM (NIK WT) multiple myeloma cells (CellTiter-Glo). The format is cell-based, human. The note with it: 96 hr treatment, averaged values, read-out: KMS-12 Proliferation inhibition (IC50 (nM)). The method, then: as §1, §2

Sequence of NIK/MAP3K14 (Q99558 whole entry): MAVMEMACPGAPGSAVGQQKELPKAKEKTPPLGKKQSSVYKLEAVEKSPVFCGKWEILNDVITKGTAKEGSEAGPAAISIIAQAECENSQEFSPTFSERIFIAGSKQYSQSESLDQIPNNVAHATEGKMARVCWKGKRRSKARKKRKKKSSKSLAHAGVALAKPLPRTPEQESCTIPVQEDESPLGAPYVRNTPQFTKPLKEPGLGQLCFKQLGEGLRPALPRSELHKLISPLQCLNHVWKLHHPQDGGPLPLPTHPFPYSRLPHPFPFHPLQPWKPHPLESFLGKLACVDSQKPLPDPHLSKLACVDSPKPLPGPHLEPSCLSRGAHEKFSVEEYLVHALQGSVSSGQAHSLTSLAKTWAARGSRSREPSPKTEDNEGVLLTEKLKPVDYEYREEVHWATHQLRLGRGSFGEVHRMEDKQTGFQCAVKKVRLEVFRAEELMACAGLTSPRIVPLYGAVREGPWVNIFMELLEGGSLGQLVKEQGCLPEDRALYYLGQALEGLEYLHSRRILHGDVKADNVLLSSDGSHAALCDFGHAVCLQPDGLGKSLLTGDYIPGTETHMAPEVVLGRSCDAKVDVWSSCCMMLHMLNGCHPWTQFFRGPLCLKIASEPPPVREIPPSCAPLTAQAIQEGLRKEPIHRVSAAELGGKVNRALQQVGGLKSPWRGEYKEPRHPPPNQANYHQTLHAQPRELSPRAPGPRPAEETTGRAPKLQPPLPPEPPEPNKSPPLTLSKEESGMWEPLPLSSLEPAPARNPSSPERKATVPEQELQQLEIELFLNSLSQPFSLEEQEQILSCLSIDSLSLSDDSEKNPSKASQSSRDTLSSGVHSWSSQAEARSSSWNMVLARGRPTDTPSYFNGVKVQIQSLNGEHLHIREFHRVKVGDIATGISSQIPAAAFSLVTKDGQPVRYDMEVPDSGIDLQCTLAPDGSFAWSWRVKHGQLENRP

Regarding `CN1CCc2cc(CCC3CC3)c(Nc3nccc(-c4cc(C#N)c5c(c4)[C@@](C)(CO)CN5)n3)cc2CC1` (mixture of isomers) [Compound 26], the IC50 in test [1] (Homo sapiens, L-363, 2 h) is 501 nM; on NIK/MAP3K14, 5.1 nM; in the test on JJN-3 cells (Homo sapiens, JJN-3, 96 h) it was 692 nM; in the test on KMS12-BM cells (Homo sapiens, KMS-12-BM, 96 h), approximately 525 nM.
With `CCCCCc1cc2c(cc1Nc1nccc(-c3cc(C#N)c4c(c3)[C@@](C)(CO)CN4)n1)CCN(C)CC2` (mixture of isomers) [Compound 27], the IC50 in test [1] (Homo sapiens, L-363, 2 h) is approximately 1200 nM; on NIK/MAP3K14, 7.1 nM; with JJN-3 cells (Homo sapiens, JJN-3, 96 h) it was 871 nM; with KMS12-BM cells (Homo sapiens, KMS-12-BM, 96 h), 1380 nM.
In the same order, the values of `CC1(CO)COc2c(Nc3nccc(-c4cc(C#N)c5c(c4)[C@@](C)(CO)CN5)n3)cnn2C1` (mixture of isomers) [Compound 31b] are 63 nM, 5 nM, approximately 2140 nM and approximately 7760 nM.
As to `CC1CC(C)n2ncc(Nc3nccc(-c4cc(C#N)c5c(c4)C(C)(CO)CN5)n3)c2O1` (racemic) [Compound 20b], the IC50 worked out at 2 nM in test [1] and 6.2 nM at NIK/MAP3K14.
With `CC1CC(C)n2ncc(Nc3nccc(-c4cc(C#N)c5c(c4)C(C)(CO)CN5)n3)c2O1` (racemic) [Compound 21b], the IC50 in test [1] was determined as 5 nM; on NIK/MAP3K14 it was 5.9 nM; in the test on JJN-3 cells (Homo sapiens, JJN-3, 96 h) it was 269 nM; in the test with KMS12-BM cells (Homo sapiens, KMS-12-BM, 96 h) it was 2510 nM.
As to `CC1(C)CNc2c(C#N)cc(-c3ccnc(Nc4cc(Cl)cc5[nH]ccc45)n3)cc21` [Compound 7c], the IC50 is 72 nM in test [1] (Homo sapiens, L-363, 2 h); 537 nM with JJN-3 cells (Homo sapiens, JJN-3, 96 h); more than 10000 nM in the test with KMS12-BM cells (Homo sapiens, KMS-12-BM, 96 h).
As for `CN(C)C(=O)c1cc2cc(Nc3nccc(-c4cc(C#N)c5c(c4)C(C)(C)CN5)n3)ccc2[nH]1` [Compound 12c], the IC50 in test [1] (Homo sapiens, L-363, 2 h) was found to be 14 nM; at NIK/MAP3K14, 10.5 nM.
In the same order, the values of `COc1cc2[nH]ccc2cc1Nc1nccc(-c2cc(C#N)c3c(c2)C(C)(CO)CN3)n1` (stereo not drawn) [Compound 13c] are 3 nM and 6.2 nM.
Consider `CN(C)C1COc2c(cc(Cl)cc2Nc2nccc(-c3cc(C#N)c4c(c3)[C@@](C)(CO)CN4)n2)C1` (stereo partly drawn) [Compound 17], for which the values for the IC50 on NIK/MAP3K14, with JJN-3 cells and with KMS12-BM cells were 3.3 nM, 5 nM and 182 nM, respectively.
Regarding `CN(C)C(=O)C(=O)N1CCc2c(Nc3nccc(-c4cc(C#N)c5c(c4)[C@@](C)(CO)CN5)n3)cc(Cl)cc21` [Compound 19], the IC50 on NIK/MAP3K14 is 5 nM; with JJN-3 cells (Homo sapiens, JJN-3, 96 h) it was 6 nM; with KMS12-BM cells (Homo sapiens, KMS-12-BM, 96 h), approximately 692 nM.
The matching figures for `COCCCc1cc2c(cc1Nc1nccc(-c3cc(C#N)c4c(c3)[C@@](C)(CO)CN4)n1)CCN(C)CC2` [Compound 20]: 20.4 nM, 372 nM and 1480 nM.
`C[C@]1(CO)CNc2c(C#N)cc(-c3ccnc(Nc4cc5c(nc4C#CC4CC4)CCOC5)n3)cc21` [Compound 22]: the IC50 in test [1] (Homo sapiens, L-363, 2 h) was more than 10000 nM; on NIK/MAP3K14, 2240 nM.
In the same order, the values of `CC1OCCn2nc(Nc3nccc(-c4cc(C#N)c5c(c4)C(C)(C)CN5)n3)cc21` (stereo not drawn) [Compound 32b] are 8 nM and 5.9 nM.
The matching figures for `CN1CCc2nc(OCC3CC3)c(Nc3nccc(-c4cc(C#N)c5c(c4)[C@@](C)(CO)CN5)n3)cc2C1` [Compound 35]: 69 nM and 4.3 nM.
As for `CC(=O)N1CCc2c1ccc(Nc1nccc(-c3cc(C#N)c4c(c3)C(C)(CO)CN4)n1)c2F` (stereo not drawn) [Compound 36], the IC50 in test [1] (Homo sapiens, L-363, 2 h) is 16 nM; at NIK/MAP3K14, 3.7 nM.
In the same order, the values of `CC1(CO)CNc2c(C#N)cc(-c3ccnc(Nc4ccc5c(c4F)CCN5)n3)cc21` (stereo not drawn) [Compound 37] are 9 nM and 4.3 nM.
The matching figures for `CN(C)CC(=O)N1CCc2c1ccc(Nc1nccc(-c3cc(C#N)c4c(c3)C(C)(CO)CN4)n1)c2F` (stereo not drawn) [Compound 38]: 12 nM and 3.4 nM.
In the case of `COc1cc2c(cc1Nc1nccc(-c3cc(C#N)c4c(c3)C(C)(CO)CN4)n1)CCN2C(C)=O` (stereo not drawn) [Compound 39], the IC50 in test [1] (Homo sapiens, L-363, 2 h) amounted to 3 nM; on NIK/MAP3K14 it was 2.5 nM.
The matching figures for `COc1cc2c(cc1Nc1nccc(-c3cc(C#N)c4c(c3)C(C)(CO)CN4)n1)CCN2C(=O)CN(C)C` (stereo not drawn) [Compound 40]: 3 nM and 4.3 nM.
For the molecule `Cc1c(Nc2nccc(-c3cc(C#N)c4c(c3)C(C)(CO)CN4)n2)ccc2c1CC(=O)N2` (stereo not drawn) [Compound 42], the results for the IC50 (in test [1]; at NIK/MAP3K14) were 36 nM and 8.9 nM, respectively.
Take `CN(C)C(=O)C1Cc2cc(Nc3nccc(-c4cc(C#N)c5c(c4)C(C)(C)CN5)n3)ccc2N1` (stereo not drawn) [Compound 43]: the IC50 in test [1] (Homo sapiens, L-363, 2 h) worked out at 5 nM; at NIK/MAP3K14 it was 6.6 nM.
For the molecule `CC1(CO)CNc2c(C#N)cc(-c3ccnc(Nc4cnc5c(c4)COCC5)n3)cc21` (stereo not drawn) [Compound 45], the IC50 on NIK/MAP3K14 was 2.7 nM; in the test on JJN-3 cells (Homo sapiens, JJN-3, 96 h) it was approximately 60 nM; in the test with KMS12-BM cells (Homo sapiens, KMS-12-BM, 96 h), approximately 186 nM.
With `C[C@]1(CO)CNc2c(C#N)cc(-c3ccnc(Nc4cc5c(nc4OC4CCCC4)CCOC5)n3)cc21` [Compound 47], the IC50 was 51 nM in test [1] (Homo sapiens, L-363, 2 h) and 35.5 nM at NIK/MAP3K14.
Consider `CC(C)Oc1nc2c(cc1Nc1nccc(-c3cc(C#N)c4c(c3)[C@@](C)(CO)CN4)n1)CN(C1CC1)CC2` [Compound 49], for which the IC50 was determined as 115 nM in test [1] (Homo sapiens, L-363, 2 h) and 34.7 nM at NIK/MAP3K14.
In the case of `COc1nc2c(cc1Nc1nccc(-c3cc(C#N)c4c(c3)[C@@](C)(CO)CN4)n1)CCN(C)C2` [Compound 53], the IC50 was 1 nM in test [1] (Homo sapiens, L-363, 2 h); 12 nM in the test on JJN-3 cells (Homo sapiens, JJN-3, 96 h); approximately 468 nM with KMS12-BM cells (Homo sapiens, KMS-12-BM, 96 h).
In the same order, the values of `CN1CCc2ncc(Nc3ncc(F)c(-c4cc(C#N)c5c(c4)[C@@](C)(CO)CN5)n3)cc2C1` [Compound 54] are 2 nM, approximately 7 nM and approximately 9 nM.
In the case of `CN1CCc2[nH]c(=O)c(Nc3nccc(-c4cc(C#N)c5c(c4)C(C)(CC(F)F)CN5)n3)cc2C1` (stereo not drawn) [Compound 57], the IC50 is 17.4 nM on NIK/MAP3K14; 11200 nM with JJN-3 cells (Homo sapiens, JJN-3, 96 h); more than 10000 nM in the test on KMS12-BM cells (Homo sapiens, KMS-12-BM, 96 h).
Turning to `COc1cc2c(cc1Nc1nccc(-c3cc(C#N)c4c(c3)C(C)(CO)CN4)n1)NC(=O)CC2` (stereo not drawn) [Compound 59], the IC50 in test [1] (Homo sapiens, L-363, 2 h) worked out at 37 nM; at NIK/MAP3K14 it was 12.9 nM.
